Assay results reported in US7772233B2, “Arylamino N-heteroaryl compounds as MEK inhibitors” (Merck Serono, S.A., priority 2006, dated 2010).
pIC50: −log10 of the molar value.

How the values were obtained:
Human Mek1 Kinase = Human Mek1 Kinase (Homo sapiens, UniProt Q02750, S218E/S222E); experiment: MEK-1 Enzyme Assay (LANCE-HTRF); format: biochemical; settings: constitutively active MEK-1EE, ERK-2K52A substrate, 9 μM ATP, 1.5 hrs room temperature
Protocol: Assay 1: MEK-1 Enzyme Assay (LANCE-HTRF)
Inhibition of Human Mek1 Kinase Activity was Monitored with a Homogenous, fluorescence-based assay. The assay uses time resolved fluorescence resonance energy transfer to probe for phosphorylation of ERK1 by MEK1. The detailed procedure is described in the following:
Constititutively active MEK-1EE (150 ng/well) and ERK-2K52A (110 ng/well) were incubated in black, 384 well Optiplates (Perkin Elmer) for 1.5 hrs at room temperature, in the presence of increasing concentrations of inhibitors. The total reaction volume was 50 μl. The inhibitors were serial diluted in kinase buffer (9 μM ATP, 50 mM Tris-HCl pH 8.0, 10 mM MgCl2, 1 mM DTT and 100 μM Na3VO4), to a final concentration of 1% DMSO. At the end of the incubation, the enzyme reaction was quenched by adding 50 μl of assay buffer containing 50 mM Tris-HCl, 50 mM EDTA, 0.1% BSA and a mixture of 1.25 ug/ml europium labeled anti-phosphotyrosine mAb (Perkin Elmer) and 5 μg/ml of allophycocyanin labeled anti-GST antibody (CIS-US). Plates were agitated on a plate shaker for 30 minutes and the phosphorylation of the ERK-2K52A substrate was measured by homogeneous time resolved fluorescence (HTRF) at 340 nm excitation and 665 nm (Europium)/615 nm (APC) emission filters on the VICTOR V fluorescence plate reader. Phosphorylation is expressed as a ratio of 665 nM signal×10,000/615 nM signal. To assess the inhibitory potential of the compounds, IC50-values were determined. Results are shown in Table 1, column 2, where “+++” indicates IC50 values below 1 μM, “++” indicates IC50 values below 10 μM and above 1 μM, and “+” indicates IC50 values above 10 μM.

Murine colon C26 cells = experiment: Tumor Cell Proliferation Assay (ATP Lite), C26; format: cell-based; settings: Mus musculus, 96 h, 4 days incubation, ATPlite
Protocol: (§1) Assay 2: Tumor Cell Proliferation Assays (ATP Lite)
(§2) Murine colon C26 (1500 cells/well), human melanoma A375 (2000 cells/well), or human pancreatic MiaPaCa-2 cells (2000 cells/well) were plated in white, 96 well plates (Corning) in growth media (DMEM with 10% fetal bovine serum, 2 mM glutamine for C26 and MiaPaCa-2, and RPMI with 10% fetal bovine serum, 2 mM glutamine for A375) and cultured overnight at 37° C. in a humidified, 5% CO2 incubator. Inhibitors were serially diluted in 100% DMSO and subsequently added to the cells, in growth media, to reach a final concentration of 0.25% DMSO. The cells were incubated for 4 days in the presence of the test compounds and the proliferation was quantitated using the ATPlite cell proliferation kit (Packard). Results of cell proliferation assay are shown in Table 1. columns 3-5, where “+++” indicates IC50 values below 1 μM, “++” indicates IC50 values below 10 μM and above 1 μM, and “+” indicates IC50 values above 10 μM.

[1] = tested on: human melanoma A375 cells; experiment: Tumor Cell Proliferation Assay (ATP Lite), A375; format: cell-based; settings: A-375, 96 h, 4 days incubation, ATPlite
Protocol: as §1, §2

[2] = tested on: human pancreatic MiaPaCa-2 cells; experiment: Tumor Cell Proliferation Assay (ATP Lite), MiaPaCa-2; format: cell-based; settings: MIA PaCa-2, 96 h, 4 days incubation, ATPlite, read-out: MiaPaCa2
Protocol: as §1, §2

Chain of Human Mek1 Kinase (Q02750 whole entry S218E/S222E): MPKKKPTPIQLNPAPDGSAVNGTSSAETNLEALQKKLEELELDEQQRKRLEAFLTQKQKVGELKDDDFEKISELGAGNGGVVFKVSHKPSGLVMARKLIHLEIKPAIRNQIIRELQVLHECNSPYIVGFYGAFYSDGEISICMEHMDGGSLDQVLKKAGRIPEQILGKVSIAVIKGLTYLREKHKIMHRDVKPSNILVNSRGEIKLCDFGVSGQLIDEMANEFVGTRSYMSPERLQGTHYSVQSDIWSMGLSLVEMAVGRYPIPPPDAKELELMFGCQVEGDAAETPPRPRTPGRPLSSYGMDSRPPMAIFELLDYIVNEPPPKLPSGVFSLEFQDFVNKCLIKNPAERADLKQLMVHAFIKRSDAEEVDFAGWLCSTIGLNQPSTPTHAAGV

SMILES: N#Cc1ncc(F)cc1Nc1ccc(I)cc1F [Example 1, 5-Fluoro-3-(2-fluoro-4-iodo-phenylamino)-pyridine-2-carbonitrile]
- pIC50 (Human Mek1 Kinase): < 5.00

SMILES: O=C(O)c1ncc(F)cc1Nc1ccc(I)cc1F [Example 2, 5-Fluoro-3-(2-fluoro-4-iodo-phenylamino)-pyridine-2-carboxylic acid]
- pIC50 (Human Mek1 Kinase): 5.00 to 6.00

SMILES: NC(=O)c1ncc(F)cc1Nc1ccc(I)cc1F [Example 3, 5-Fluoro-3-(2-fluoro-4-iodo-phenylamino)-pyridine-2-carboxylic acid amide]
- pIC50 (Human Mek1 Kinase): > 6.00
- pIC50 (Murine colon C26 cells): < 5.00
- pIC50 [1]: 5.00 to 6.00
- pIC50 [2]: < 5.00

SMILES: O=C(O)c1cc(Cl)nnc1Nc1ccc(I)cc1F [Example 4, 6-Chloro-3-(2-fluoro-4-iodo-phenylamino)-pyridazine-4-carboxylic acid]
- pIC50 (Human Mek1 Kinase): > 6.00
- pIC50 (Murine colon C26 cells): < 5.00
- pIC50 [1]: < 5.00
- pIC50 [2]: < 5.00

SMILES: O=C(O)c1cc(N2CCOCC2)nnc1Nc1ccc(I)cc1F [Example 5, 3-(2-Fluoro-4-iodo-phenylamino)-6-morpholin-4-yl-pyridazine-4-carboxylic acid]
- pIC50 (Human Mek1 Kinase): 5.00 to 6.00
- pIC50 (Murine colon C26 cells): < 5.00
- pIC50 [1]: < 5.00
- pIC50 [2]: < 5.00

SMILES: COc1cc(C(=O)O)c(Nc2ccc(I)cc2F)nn1 [Example 6, 3-(2-Fluoro-4-iodo-phenylamino)-6-methoxy-pyridazine-4-carboxylic acid]
- pIC50 (Human Mek1 Kinase): < 5.00
- pIC50 (Murine colon C26 cells): < 5.00
- pIC50 [1]: < 5.00
- pIC50 [2]: < 5.00

SMILES: CC1(C)OC[C@H](CONC(=O)c2cc(Cl)nnc2Nc2ccc(I)cc2F)O1 [Example 7, 6-Chloro-3-(2-fluoro-4-iodo-phenylamino)-pyridazine-4-carboxylic acid (2,2-dimethyl-[1,3]dioxolan-4-ylmethoxy)-amide]
- pIC50 (Human Mek1 Kinase): < 5.00
- pIC50 (Murine colon C26 cells): < 5.00
- pIC50 [1]: < 5.00
- pIC50 [2]: < 5.00

SMILES: O=C(NOC[C@H](O)CO)c1cc(Cl)nnc1Nc1ccc(I)cc1F [Example 8, 6-Chloro-3-(2-fluoro-4-iodo-phenylamino)-pyridazine-4-carboxylic acid (2,3-dihydroxy-propoxy)-amide]
- pIC50 (Human Mek1 Kinase): < 5.00

SMILES: NC(=O)c1cc(Cl)nnc1Nc1ccc(I)cc1F [Example 9, 6-Chloro-3-(2-fluoro-4-iodo-phenylamino)-pyridazine-4-carboxylic acid amide]
- pIC50 (Human Mek1 Kinase): > 6.00
- pIC50 (Murine colon C26 cells): < 5.00
- pIC50 [1]: 5.00 to 6.00
- pIC50 [2]: 5.00 to 6.00

SMILES: O=C(NCCN1CCOCC1)c1cc(Cl)nnc1Nc1ccc(I)cc1F [Example 10, 6-Chloro-3-(2-fluoro-4-iodo-phenylamino)-pyridazine-4-carboxylic acid (2-morpholin-4-yl-ethyl)-amide]
- pIC50 (Human Mek1 Kinase): 5.00 to 6.00

SMILES: O=C(O)c1ccc(F)nc1Nc1ccc(I)cc1F [Example 11, 6-fluoro-2-[(2-fluoro-4-iodophenyl)amino]nicotinic acid]
- pIC50 (Human Mek1 Kinase): > 6.00
- pIC50 (Murine colon C26 cells): < 5.00
- pIC50 [1]: < 5.00
- pIC50 [2]: < 5.00

SMILES: CC1(C)OC[C@H](CONC(=O)c2ccc(F)nc2Nc2ccc(I)cc2F)O1 [Example 12, N-{[(4R)-2,2-dimethyl-1,3-dioxolan-4-yl]methoxy}-6-fluoro-2-[(2-fluoro-4-iodophenyl)amino]nicotinamide]
- pIC50 (Human Mek1 Kinase): 5.00 to 6.00

SMILES: O=C(NOC[C@H](O)CO)c1ccc(F)nc1Nc1ccc(I)cc1F [Example 13, N—[(R)-2,3-Dihydroxy-propoxy]-6-fluoro-2-[(2-fluoro-4-iodo-phenylamino)]-nicotinamide]
- pIC50 (Human Mek1 Kinase): 5.00 to 6.00
- pIC50 (Murine colon C26 cells): < 5.00
- pIC50 [1]: 5.00 to 6.00
- pIC50 [2]: < 5.00
